Experimental data as given in patent US9890188B2, “Substituted nucleosides, nucleotides and analogs thereof” (ALIOS BIOPHARMA, INC., priority 2014, dated 2018).

tested on: Human rhinovirus 1B; experiment: Picornavirus assay with 24 h compound pre-incubation before infection: human rhinovirus 1B in HeLa-OHIO cells, CellTiter-Glo readout; type: cell-based; details: Rhinovirus A, HeLa-OHIO cells pre-incubated with compound for 24 h before infection, 4 d at 33° C.
Procedure: (§1) HeLa-OHIO cells (Sigma-Aldrich, St. Louis, Mo.) were plated in 96 well plates at a density of 1.5×10^5 cells per well in assay media (MEM without phenol red or L-glutamine, supplemented with 1% FBS, 1% penicillin/streptomycin, 2 mM GlutaGro, and 1×MEM nonessential amino acids, all from Cellgro, Manassas, Va.). Assay setup took place after allowing cells to adhere for 24 h. Compounds dissolved in DMSO were serially diluted in assay media to 2× final concentration. Media was aspirated from the cells, and 100 μl media with compound was added in triplicate. Cells were pre-incubated with the diluted compounds for 24 h before infection. Human rhinovirus 1B (ATCC, Manassas, Va.) was diluted in assay media, and 100 μL was added to cells and compound. The virus inoculum was selected to cause 80-90% cytopathic effect in 4 d. Infected cells were incubated for 4 d at 33° C., 5% CO2. To develop the assay, 100 μL media was replaced with 100 μL CellTiter-Glo® reagent (Promega, Madison, Wis.), and incubated for 10 mins at RT. Luminescence was measured on a Victor X3 multi-label plate reader. Compounds of Formula (I) are active in this assay.

Row | EC50 [µM] | SMILES
1 | 1 to 10 | C[C@@H]1[C@H](n2ccc(N)nc2=O)O[C@@](CO)(CF)[C@H]1O [Compound 41]
2 | 10 to 100 | Nc1ccn([C@@H]2O[C@@](CO)(C(F)F)[C@@H](O)[C@@H]2O)c(=O)n1 [Compound 44]
3 | 1 to 10 | Nc1ccn([C@@H]2O[C@@](CO)(CF)[C@@H](O)[C@@H]2O)c(=O)n1 [Compound 45]

target: human rhinovirus 16 polymerase (HRV16pol) (Human rhinovirus 16, UniProt Q82122); experiment: Picornavirus polymerase inhibition assay: incorporation of tritiated NMP into acid-insoluble RNA products; type: biochemical; details: not given
Procedure: The enzyme activity of human rhinovirus 16 polymerase (HRV16pol) was measured as an incorporation of tritiated NMP into acid-insoluble RNA products. HRV16pol assay reactions contained 30 Nm recombinant enzyme, 50 Nm heteropolymeric RNA, about 0.5 μCi tritiated NTP, 0.1 Mm of competing cold NTP, 40 Mm Tris-HCl (Ph 7.0), 3 Mm dithiothreitol, and 0.5 Mm MgCl2. Standard reactions were incubated for 2.5 h at 30° C., in the presence of increasing concentration of inhibitor. At the end of the reaction, RNA was precipitated with 10% TCA, and acid-insoluble RNA products were filtered on a size exclusion 96-well plate. After washing of the plate, scintillation liquid was added and radiolabeled RNA products were detected according to standard procedures with a Trilux Microbeta scintillation counter. The compound concentration at which the enzyme-catalyzed rate was reduced by 50% (IC50) was calculated by fitting the data to a non-linear regression (sigmoidal).
A value of ‘A’ in the table below indicates an IC50 of <5 μM, a value of 13′ indicates an IC50<20 μM, and a value of ‘C’ indicates an IC50 value of <100 μM.

Sequence of human rhinovirus 16 polymerase (HRV16pol) (Q82122 1694-2153 limits assumed): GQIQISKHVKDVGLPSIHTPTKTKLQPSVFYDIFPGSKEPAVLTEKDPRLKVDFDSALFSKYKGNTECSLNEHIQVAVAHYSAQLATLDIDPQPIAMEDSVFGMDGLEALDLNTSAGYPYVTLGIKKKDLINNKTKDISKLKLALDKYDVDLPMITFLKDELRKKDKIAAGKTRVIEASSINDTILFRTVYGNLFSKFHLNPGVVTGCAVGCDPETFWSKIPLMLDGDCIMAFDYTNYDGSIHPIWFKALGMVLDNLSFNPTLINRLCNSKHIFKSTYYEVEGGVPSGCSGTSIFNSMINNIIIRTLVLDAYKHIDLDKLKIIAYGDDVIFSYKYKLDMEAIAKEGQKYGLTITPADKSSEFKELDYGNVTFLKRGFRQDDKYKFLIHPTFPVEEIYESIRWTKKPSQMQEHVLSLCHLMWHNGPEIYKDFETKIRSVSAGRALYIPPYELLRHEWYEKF

Row | SMILES | IC50 [µM]
4 | Nc1ccn([C@@H]2O[C@](CF)(COP(=O)(O)OP(=O)(O)OP(=O)(O)O)[C@@H](O)[C@@H]2F)c(=O)n1 [Compound 21] | < 5

same assay, conditions: recombinant HRV16pol, 2.5 h at 30° C., mean of several independent experiments; read-out: IC50

Row | IC50 [µM] | SMILES
5 | 20 to 100 | Nc1ccn([C@@H]2O[C@](CF)(COP(=O)(O)OP(=O)(O)OP(=O)(O)O)[C@@H](O)[C@@H]2Cl)c(=O)n1 [Compound 16]
6 | 5 to 20 | [N-]=[N+]=NC[C@]1(COP(=O)(O)OP(=O)(O)OP(=O)(O)O)O[C@@H](n2ccc(N)nc2=O)[C@@H](F)[C@@H]1O [Compound 18]
7 | < 5 | O=c1ccn([C@@H]2O[C@](CCl)(COP(=O)(O)OP(=O)(O)OP(=O)(O)O)[C@@H](O)[C@@H]2F)c(=O)[nH]1 [Compound 19]
8 | 20 to 100 | Nc1ccn([C@@H]2O[C@](CBr)(COP(=O)(O)OP(=O)(O)OP(=O)(O)O)[C@@H](O)[C@@H]2F)c(=O)n1 [Compound 20]
9 | 5 to 20 | C#C[C@]1(COP(=O)(O)OP(=O)(O)OP(=O)(O)O)O[C@@H](n2ccc(N)nc2=O)[C@@H](F)[C@@H]1O [Compound 22]
10 | < 5 | C=C[C@]1(COP(=O)(O)OP(=O)(O)OP(=O)(O)O)O[C@@H](n2ccc(N)nc2=O)[C@@H](F)[C@@H]1O [Compound 23]
11 | < 5 | CC[C@]1(COP(=O)(O)OP(=O)(O)OP(=O)(O)O)O[C@@H](n2ccc(N)nc2=O)[C@@H](F)[C@@H]1O [Compound 24]
12 | < 5 | C[C@@H]1[C@H](n2ccc(N)nc2=O)O[C@](CF)(COP(=O)(O)OP(=O)(O)OP(=O)(O)O)[C@H]1O [Compound 47]
13 | < 5 | C#C[C@@H]1[C@H](n2ccc(N)nc2=O)O[C@](CF)(COP(=O)(O)OP(=O)(O)OP(=O)(O)O)[C@H]1O [Compound 48]
14 | 5 to 20 | Nc1ccn([C@@H]2O[C@](CF)(COP(=O)(O)OP(=O)(O)OP(=O)(O)O)[C@@H](O)[C@@H]2CF)c(=O)n1 [Compound 50]
15 | < 5 | Nc1ccn([C@@H]2O[C@@](COP(=O)(O)OP(=O)(O)OP(=O)(O)O)(C(F)F)[C@@H](O)[C@@H]2O)c(=O)n1 [Compound 52]
16 | < 5 | Nc1ccn([C@@H]2O[C@](CF)(COP(=O)(O)OP(=O)(O)OP(=O)(O)O)[C@@H](O)[C@@H]2O)c(=O)n1 [Compound 53]
17 | < 5 | Nc1ccn([C@H]2C[C@H](O)[C@](COP(=O)(O)OP(=O)(O)OP(=O)(O)O)(C(F)F)O2)c(=O)n1 [Compound 54]

tested on: Human rhinovirus 1B; experiment: Picornavirus assay: human rhinovirus 1B cytopathic effect in HeLa-OHIO cells, CellTiter-Glo readout; type: cell-based; details: Rhinovirus A, 96 h, compound and virus added together, 4 d at 33° C.
Procedure: as §1, with “[…]” for “100 μl”, “triplicate.” for “triplicate. Cells were pre-incubated with the diluted compounds for 24 h before infection.”

Row | EC50 [µM] | SMILES
18 | 1 to 10 | Nc1ccn([C@@H]2O[C@@](CO)(CF)[C@@H](O)[C@@H]2Cl)c(=O)n1 [Compound 2]
19 | < 1 | Nc1ccn([C@@H]2O[C@@](CO)(CCl)[C@@H](O)[C@@H]2F)c(=O)n1 [Compound 3]
20 | < 1 | [N-]=[N+]=NC[C@]1(CO)O[C@@H](n2ccc(N)nc2=O)[C@@H](F)[C@@H]1O [Compound 4]
21 | < 1 | Nc1ccn([C@@H]2O[C@@](CO)(CF)[C@@H](O)[C@@H]2F)c(=O)n1 [Compound 7]
22 | < 1 | C=C[C@]1(CO)O[C@@H](n2ccc(N)nc2=O)[C@@H](F)[C@@H]1O [Compound 9]
23 | 1 to 10 | CC[C@]1(CO)O[C@@H](n2ccc(N)nc2=O)[C@@H](F)[C@@H]1O [Compound 10]
24 | < 1 | [N-]=[N+]=NC[C@]1(CO)O[C@@H](n2ccc(N)nc2=O)C[C@@H]1O [Compound 37]
